Reference: patent publication US9994915B2, “miR-211 expression and related pathways in human melanoma” (Sanford-Burnham Medical Research Institute, priority 2010, dated 2018)

Tests used:
Type in all cases: cell-based, human
WM1552C melanoma cells = test: Matrigel invasion chamber assay; conditions: 48 hours
Procedure: BD BioCoat™ growth factor reduced insert plates (Matrigel™ Invasion Chamber 12 well plates) were prepared by rehydrating the BD Matrigel™ matrix coating in the inserts with 0.5 mls of serum-free Complete Tu media for two hours at 37° C. The rehydration solution was carefully removed from the inserts, 0.5 ml Complete Tu (2% FBS) was added to the lower wells of the plate, and 2.5×10^4 cells suspended in 0.5 ml of serum-free Complete Tu media were added to each insert well. WM1552C/211(800) cells were additionally transfected with the Anti-miR miRNA Inhibiter for hsa-miR-211 as well as Negative Control #1 (Ambion) (miR-Scramble) at a concentration of 100 nM using siPORT NeoFX (Ambion). […] The number of migrating tumor cells was counted from each of five images per cell line (including miR Inhibiter transfected cells) in the central area of the filter. […] Data are expressed as the percent invasion through the membrane relative to the migration of WM1552C (Wild Type) through the membrane.
The impact of miR-211 expression on the invasive properties of WM1552C. WM1552C/211(400) and WM1552C/211(800) cells, along with WM1552C/VO, WM1552C/KC KO, and untransfected WM1552C was determined. […]
2.5×10^5 cells WM1552C/211(800) cells were seeded into wells of a 6-well plate. […] After 48 hours, the cells were harvested by trypsinization and counted using an automated cell counter (Cellometer®, Nexcelom Bioscience). […]

IGFBP5 mRNA = test: Next Gen sequencing of IGFBP5 mRNA in WM1552C cells
Procedure: To extend the findings of the MITF knock-down study and to further establish IGFBP5 as a miR-211 target, the effect of miR-211 expression on IGFBP5 mRNA was determined. WM1552C cells were transfected with either an empty vector or the vector encoding and expressing miR-211. Additionally, untransfected WM1552C cells were treated with 5-Aza-2′deoxycytidine (“5-Aza”) to investigate whether miR-211 down-regulates IGFBP5 mRNA production through a genomic methylation mechanism.

A375 cells [1] = test: cell counts in hypoxic chamber (2% O2), A375/211; conditions: A375/211 cells, hypoxic chamber 2% O2 (parental A375 about 68%)
From the text: (§1) To test under actual hypoxic conditions, both cell lines were placed into a hypoxic chamber containing 2% O2 prior to determination of cell counts. […] As in the DFO-simulated hypoxic condition assay, the presence of miR-211 caused the effect to be greatly exacerbated, reducing survival to about 29%.

WM1552C cells = test: cell counts in hypoxic chamber (2% O2), WM1552C/211; conditions: WM1552C/211 cells, hypoxic chamber 2% O2 (parental WM1552C about 64%)
From the text: as §1

A375 melanoma cells = test: oxygen consumption, Seahorse XF96 Analyzer; conditions: miR-211-expressing A375 cells
Procedure: (§2) Deep-sequencing (RNA-seq) and proteomics (mass spectrometry) data from two melanoma cell lines A375 and W[…], each expressing miR-211 or the empty vector, were generated. […] Energy consumption was investigated in miR-211-expressing cells. Using the Seahorse XF96 Analyzer, it was determined that miR-211-expressing melanoma cells (A375) consumed nearly double the amount of oxygen as control cells expressing the empty vector (FIG. 35). […] Finally, we measured the level of hypoxia-inducible factor 1 alpha (HIF-1α) in miR-211-expressing cells. HIF-1α expression was reduced by miR-211 expression which is an indication of cellular respiration changes (FIG. 37).

[2] = tested on: hypoxia-inducible factor 1 alpha (HIF-1α); test: level of HIF-1α in miR-211-expressing cells
Procedure: as §2

A375 cells [3] = test: lipid species (PI acyl chains) by mass spectrometry in A375 vs A375/211; conditions: A375/211 vs A375 cells
From the text: To determine the effect of miR-211 expression in A375 cells on the production of lipid species, as an indicator of metabolic change, fatty acids were isolated and quantitated in A375 cells and A375/211 by mass spectrometry. […] This confirms that miR-211 is capable of altering the metabolic profile of these metabolic cells.

miR-211: pre-miR-211 sequence stably expressed from plasmid pcDNA4/miR-211 in melanoma cells; mature sequence UUCCCUUUGUCAUCCUUCGCCU (SEQ ID NO: 15) (listed as Homo sapiens)
migrated less than WM1552C (invasion) (WM1552C melanoma cells; WM1552C/211(400)): ~40%
migrated less than WM1552C (invasion) (WM1552C melanoma cells; WM1552C/211(800)): ~60%
IGFBP5 mRNA expression (IGFBP5 mRNA): almost to undetectably levels
survival vs normoxic condition cells (A375 cells [1]): about 29%
survival vs normoxic condition cells (WM1552C cells): 34%
amount of oxygen consumed vs empty vector control cells (A375 melanoma cells): nearly double
HIF-1α expression [2]: reduced
content of 18:0-18:2 acyl chains (A375 cells [3]): large increase
content of 18:0-20:4 acyl chains (A375 cells [3]): large decrease
